Measured values from the supplement of paper PMC10307832.

Experiments:
Assay in all cases: relative viability (nuclei count vs DMSO), 5 days (fraction); higher = more cells survive
Palbociclib = compound: CC(=O)c1c(C)c2cnc(Nc3ccc(N4CCNCC4)cn3)nc2n(C2CCCC2)c1=O [Palbociclib]
How it was run: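 A plate was accepted only when its control CV was below 25% and the cells had doubled at least once. Viability is defined from nuclear counts as treated wells divided by vehicle wells, with the median taken across plates. That median covers lung cancer cell lines grown in 1536-well plates, dosed by pinning at five √10-spaced library-drug concentrations, and counted in MetaXpress from 4× Hoechst images after 5 days.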

Palbociclib + Foretinib = compound: CC(=O)c1c(C)c2cnc(Nc3ccc(N4CCNCC4)cn3)nc2n(C2CCCC2)c1=O [Palbociclib] + COc1cc2c(Oc3ccc(NC(=O)C4(C(=O)Nc5ccc(F)cc5)CC4)cc3F)ccnc2cc1OCCCN1CCOCC1 [Foretinib] (partner 0.25 µM)
How it was run: (§1)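 Relative viability equals treated-well nuclei counts divided by vehicle-well nuclei counts. Counts came from 4× images of lung cancer cell lines grown in 1536-well plates for 5 days after pin-tool dosing on the day after seeding. Dosing used one drug alone or a fixed anchor-drug dose plus five library-drug doses (not always all listed) in √10 steps, and values are medians of duplicate plates.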

Palbociclib + Pemetrexed = compound: CC(=O)c1c(C)c2cnc(Nc3ccc(N4CCNCC4)cn3)nc2n(C2CCCC2)c1=O [Palbociclib] + Nc1nc2[nH]cc(CCc3ccc(C(=O)N[C@@H](CCC(=O)O)C(=O)O)cc3)c2c(=O)[nH]1 [Pemetrexed] (partner 0.2 µM)
How it was run: as §1

| Cell Line | relative viability (Palbociclib; 0.01 µM) | relative viability (Palbociclib; 0.03162 µM) | relative viability (Palbociclib; 0.1 µM) | relative viability (Palbociclib; 0.3162 µM) | relative viability (Palbociclib; 0.5 µM, anchor plate) | relative viability (Palbociclib; 1 µM) | relative viability (Palbociclib + Foretinib; first compound 0.01 µM) | relative viability (Palbociclib + Foretinib; first compound 0.03162 µM) | relative viability (Palbociclib + Foretinib; first compound 0.1 µM) | relative viability (Palbociclib + Foretinib; first compound 0.3162 µM) | relative viability (Palbociclib + Foretinib; first compound 1 µM) | relative viability (Palbociclib + Pemetrexed; first compound 0.01 µM) | relative viability (Palbociclib + Pemetrexed; first compound 0.03162 µM) | relative viability (Palbociclib + Pemetrexed; first compound 0.1 µM) | relative viability (Palbociclib + Pemetrexed; first compound 0.3162 µM) | relative viability (Palbociclib + Pemetrexed; first compound 1 µM) |
| --- | --- | --- | --- | --- | --- | --- | --- | --- | --- | --- | --- | --- | --- | --- | --- | --- |
| 201T | 1.02 | 0.863 | 0.9 | 0.867 | 0.349 | 0.571 | 0.932 | 0.841 | 0.72 | 0.77 | 0.419 | 0.343 | 0.342 | 0.358 | 0.372 | 0.283 |
| A549 | 0.983 | 0.71 | 0.68 | 0.692 |  | 0.448 | 0.925 | 0.831 | 0.754 | 0.635 | 0.43 |  |  |  |  |  |
| A-427 | 0.941 | 0.775 | 0.755 | 0.727 | 0.529 | 0.534 | 0.944 | 1.01 | 0.993 | 0.729 | 0.607 | 0.96 | 0.879 | 0.779 | 0.633 | 0.497 |
| ABC-1 | 1.02 | 0.853 | 0.81 | 0.785 | 0.755 | 0.686 | 0.963 | 0.808 | 0.852 | 0.763 | 0.709 |  |  |  |  |  |
| BEN | 1.04 | 0.813 | 0.778 | 0.814 | 0.487 | 0.476 | 0.729 | 0.422 | 0.607 | 0.556 | 0.376 | 0.894 | 0.596 | 0.609 | 0.585 | 0.38 |
| CAL-12T | 1 | 0.851 | 0.75 | 0.651 | 0.446 | 0.611 | 1.01 | 0.898 | 0.901 | 0.791 | 0.674 | 1.14 | 1.1 | 0.924 | 0.672 | 0.637 |
| COR-L23 | 1.05 | 0.886 | 0.739 | 0.808 | 0.293 | 0.528 | 0.95 | 0.745 | 0.911 | 0.729 | 0.58 | 0.183 | 0.202 | 0.201 | 0.191 | 0.203 |
| COR-L 105 | 1 | 0.724 | 0.616 | 0.651 | 0.408 | 0.473 | 0.841 | 0.826 | 0.992 | 0.595 | 0.449 | 1.21 | 0.802 | 0.778 | 0.697 | 0.47 |
| Calu-6 | 1.06 | 0.919 | 0.833 | 0.79 |  | 0.588 | 0.879 | 0.808 | 0.714 | 0.672 | 0.463 |  |  |  |  |  |
| ChaGo-K-1 | 1.02 | 0.778 | 1.04 | 1.02 | 0.939 | 1.02 | 0.928 | 0.797 | 1.1 | 0.959 | 0.977 | 0.259 |  | 0.261 | 0.257 | 0.26 |
| EBC-1 | 1.02 | 0.809 | 0.662 | 0.543 |  | 0.248 | 0.113 | 0.0957 | 0.0957 | 0.0852 | 0.0884 |  |  |  |  |  |
| EKVX | 1.12 | 0.733 | 0.766 | 0.882 | 0.394 | 0.544 | 0.907 | 0.412 | 0.748 | 0.757 | 0.463 | 0.392 |  | 0.353 | 0.317 | 0.243 |
| EMC-BAC-2 | 0.999 | 0.749 | 0.791 | 0.736 | 0.514 | 0.589 | 1 | 0.931 | 0.804 | 0.821 | 0.61 | 0.449 | 0.476 | 0.427 | 0.417 | 0.428 |
| EPLC-272H | 1.07 |  | 0.798 | 0.828 | 0.33 | 0.456 | 0.794 |  | 0.572 | 0.689 | 0.435 | 0.278 | 0.322 | 0.408 | 0.539 | 0.512 |
| H3255 | 1.04 | 0.922 | 0.823 | 0.904 | 0.316 | 0.519 | 0.879 | 0.898 | 0.693 | 0.641 | 0.57 | 0.602 | 0.59 | 0.576 | 0.488 | 0.397 |
| HARA | 1.1 |  | 0.746 | 0.652 | 0.262 | 0.392 | 0.828 |  | 0.763 | 0.534 | 0.332 | 0.253 | 0.265 | 0.274 | 0.262 | 0.212 |
| HCC-15 | 0.986 |  | 0.915 | 0.828 | 0.717 | 0.732 | 1 |  | 0.902 | 0.892 | 0.716 | 0.217 |  | 0.246 | 0.247 | 0.227 |
| HCC-44 | 0.891 | 0.82 | 0.969 | 0.96 | 0.962 | 1.02 |  |  |  |  |  | 0.626 | 0.63 | 0.592 | 0.634 | 0.666 |
| HCC-78 | 0.998 | 0.756 | 0.698 | 0.703 | 0.477 | 0.385 | 0.54 | 0.453 | 0.481 | 0.509 | 0.364 | 0.894 | 0.88 | 0.935 | 0.942 | 0.943 |
| HCC-366 | 1 |  | 0.977 | 1 | 0.383 | 0.859 | 0.919 |  | 0.893 | 0.953 | 0.797 | 0.155 |  | 0.162 | 0.138 | 0.155 |
| HCC-827 | 1.04 | 0.904 | 0.887 | 0.912 | 0.483 | 0.786 | 1.03 | 0.951 | 0.999 | 0.977 | 0.734 | 0.228 | 0.251 | 0.257 | 0.261 | 0.243 |
| HOP-62 | 0.953 |  | 0.87 | 0.795 | 0.451 | 0.663 | 0.881 |  | 1.02 | 0.958 | 0.735 | 0.281 |  | 0.306 | 0.252 | 0.269 |
| IA-LM | 0.901 | 0.54 | 0.559 | 0.428 |  | 0.162 | 1.06 | 0.959 | 0.862 | 0.514 | 0.313 |  |  |  |  |  |
